In patent US7635561B2, “Methods of diagnosing, prognosing and treating breast cancer” (Temple University of the Commonwealth System of Higher …, priority 2003, dated 2009):

Assays:
Format in all cases: cell-based
[1] = system: pRb2/p130-multimolecular complex on ER-α promoter in MCF-7 cells; test: XChIP analysis of recruitment of pRb2/p130-multimolecular complex to the ER-α promoter in 5-Aza-2dC treated MCF-7 cells; conditions: 72 hours treatment
Description: After removal of the medium, cells were washed three times on plates with cold phosphate-buffered saline (PBS) containing protease inhibitors (1 mM phenylmethyl-sulfonyl fluoride, 1 μg/ml aprotinin and 1 μg/ml pepstatin A), scraped, and washed again twice in cold PBS. The cell pellet was resuspended in SDS lysis buffer (1% SDS, 10 mM EDTA, 50 mM Tris-HCl, pH 8.1), incubated for 10 minutes on ice, sonicated to shear DNA to lengths between 300 and 500 bp, and centrifuged for 10 minutes at 13,000 rpm at 4° C. Sonicated cell supernatant was diluted in ChIP dilution buffer (0.01% SDS, 1.1% Triton X-100, 1.2 mM EDTA, 16.7 mM Tris-HCL, pH 8.1, 167 mM NaCL), and pre-cleared twice with salmon sperm DNA/protein A agarose at 4° C. for 2 hours. The agarose was pelleted and the supernatant fraction was collected and incubated overnight at 4° C. with the immunoprecipitating antibody.
As negative controls, a “no-antibody” immunoprecipitation was performed by incubating the supernatant fraction with salmon sperm DNA/protein A agarose, and immunoprecipitating the mixture with an irrelevant antibody. […]

[2] = system: pRb2/p130-multimolecular complex on ER-α promoter in MDA-MB-231 cells; test: XChIP analysis of recruitment of pRb2/p130-multimolecular complex to the ER-α promoter in 5-Aza-2dC treated MDA-MB-231 cells; conditions: 72 hours treatment, complex contained pRb2/p130, E2F4, SUV39H1, p300, HDAC1
Description: Soluble chromatin was immunoprecipitated with specific antibodies recognizing pRb2/p130, E2F4, HDAC1, SUV39H1, DNMT1, and p300. The presence of ER-α promoter sequences in the immunoprecipitates was tested by PCR using specific primers spanning ER-α promoter.
Chromatin immunoprecipitations were performed using a modified procedure of previously published methods (see Orlando et al., 1997, Methods and 11, 205; Keller et al., 2002, J. Biol. Chem., 277, 31430, the entire disclosures of which are herein incorporated by reference), in combination with Western blot and PCR techniques. Approximately 1×10^6 MCF-7 and MDA-MB-231 cells were cross-linked by adding formaldehyde (1% final concentration) directly to the culture medium, and incubating the cells for 8 minutes at 37° C.
After removal of the medium, cells were washed three times on plates with cold phosphate-buffered saline (PBS) containing protease inhibitors (1 mM phenylmethyl-sulfonyl fluoride, 1 μg/ml aprotinin and 1 μg/ml pepstatin A), scraped, and washed again twice in cold PBS. […]
The recruitment of pRb2/p130-multimolecular complexes to ER-α promoter was analyzed in MCF-7 and MDA-MB-231 cells by XChIP. […]

[3] = system: ER-α in MDA-MB-231 cells; test: Effect of 5-Aza-2dC on ER-α RNA (RT-PCR) and protein (Western blot) expression in MDA-MB-231 cells
Description: The expression of β-actin protein in each sample was assessed to normalize protein loading.
The breast carcinoma cell lines, MCF-7 (estrogen receptor-positive), MDA-MB-231 (estrogen receptor-negative) and the normal mammary epithelial cell line MCF-12A, were obtained from ATCC (Rockville, Md.) and were cultured according to the manufacturer's protocols. The breast primary tumors were selected on the basis of estrogen receptor status.
Control cells were left untreated. Total RNA was isolated from the treated and control cells, and ER-α RNA was detected by reverse-transcription polymerase chain reaction (RT-PCR). P-actin RNA expression was also determined by RT-PCR in total RNA isolated from treatment and control cells to normalize RNA loading. […] The expression of β-actin protein was assessed to normalize protein loading.

For `Nc1ncn([C@H]2C[C@H](O)[C@@H](CO)O2)c(=O)n1` [5-Aza-2dC, 5-Aza-2′-deoxycytidine], the “composition of pRb2/p130-multimolecular complex recruited onto ER-α promoter” value [1] was “did not influence the composition”, the “composition of pRb2/p130-multimolecular complex recruited to ER-α promoter” value [2] was “did not contain DNMT1” and the “time of maximal ER-α RNA expression” value ([3]; MDA-MB-231 cells treated with 5-Aza-2dC) was 72 h. For the same compound, the “expression of ER-α RNA” value ([3]; MDA-MB-231 cells, 2.5 μM, 24-96 hours, RT-PCR, especially evident at 48-96 h) was “significantly enhanced” and the “expression of ER-α protein” value ([3]; MDA-MB-231 cells, 2.5 μM, 24-96 hours, Western blot, especially evident at 48-96 h) was “significantly enhanced”.
